Data reported in ChEMBL document CHEMBL5537115, “New broad-spectrum and potent antibacterial agents with dual-targeting mechanism: Promoting FtsZ polymerization and disrupting bacterial membranes” (Eur J Med Chem, 2024).
≈ marks a conversion by molar mass, not a printed value.

How the values were obtained:
Assay type in all cases: functional
Staphylococcus aureus [1] = assay: Antibacterial activity against penicillin-resistant Staphylococcus aureus ATCC31007 assessed as bacterial growth inhibition incubated for 20 hrs by CLSI based broth microdilution method
Staphylococcus aureus [2] = assay: Antibacterial activity against methicillin-resistant Staphylococcus aureus ATCC43300 assessed as bacterial growth inhibition incubated for 20 hrs by CLSI based broth microdilution method
Bacillus pumilus = assay: Antibacterial activity against penicillin-susceptible Bacillus pumilus CMCC63202 assessed as bacterial growth inhibition incubated for 20 hrs by CLSI based broth microdilution method
Enterococcus faecalis [3] = assay: Antibacterial activity against vancomycin-susceptible Enterococcus faecalis ATCC29212 assessed as bacterial growth inhibition incubated for 20 hrs by CLSI based broth microdilution method
Bacillus subtilis = assay: Antibacterial activity against penicillin-susceptible Bacillus subtilis ATCC9372 assessed as bacterial growth inhibition incubated for 20 hrs by CLSI based broth microdilution method
Escherichia coli [4] = assay: Antibacterial activity against penicillin-susceptible Escherichia coli ATCC25922 assessed as bacterial growth inhibition incubated for 20 hrs by CLSI based broth microdilution method
Enterococcus faecium [5] = assay: Antibacterial activity against vancomycin-resistant Enterococcus faecium ATCC51559 assessed as bacterial growth inhibition incubated for 20 hrs by CLSI based broth microdilution method
Escherichia coli [6] = assay: Antibacterial activity against wild-type Escherichia coli BW25113 assessed as bacterial growth inhibition incubated for 20 hrs by CLSI based broth microdilution method
Streptococcus pyogenes [7] = assay: Antibacterial activity against erythromycin-resistant Streptococcus pyogenes 2 clinical isolate assessed as bacterial growth inhibition incubated for 20 hrs by CLSI based broth microdilution method
Streptococcus pyogenes [8] = assay: Antibacterial activity against erythromycin-susceptible Streptococcus pyogenes 1 assessed as bacterial growth inhibition incubated for 20 hrs by CLSI based broth microdilution method
Klebsiella pneumoniae = assay: Antibacterial activity against Klebsiella pneumoniae ATCC BAA-1902 assessed as bacterial growth inhibition incubated for 20 hrs by CLSI based broth microdilution method
Enterococcus faecium [9] = assay: Antibacterial activity against vancomycin-susceptible Enterococcus faecium ATCC19434 assessed as bacterial growth inhibition incubated for 20 hrs by CLSI based broth microdilution method
Acinetobacter baumannii = assay: Antibacterial activity against Acinetobacter baumannii ATCC19606 assessed as bacterial growth inhibition incubated for 20 hrs by CLSI based broth microdilution method
[10] = test system: Staphylococcus epidermidis; assay: Antibacterial activity against penicillin-resistant Staphylococcus epidermidis clinical isolate assessed as bacterial growth inhibition incubated for 20 hrs by CLSI based broth microdilution method
Staphylococcus aureus [11] = assay: Antibacterial activity against Staphylococcus aureus clinical isolate assessed as bacterial growth inhibition incubated for 20 hrs by CLSI based broth microdilution method
Enterococcus faecalis [12] = assay: Antibacterial activity against vancomycin-resistant Enterococcus faecalis ATCC51299 assessed as bacterial growth inhibition incubated for 20 hrs by CLSI based broth microdilution method
Staphylococcus aureus [13] = assay: Antibacterial activity against erythromycin-susceptible Staphylococcus aureus ATCC25923 assessed as bacterial growth inhibition incubated for 20 hrs by CLSI based broth microdilution method

| Structure (SMILES) | MIC (Staphylococcus aureus [1]) | MIC (Staphylococcus aureus [2]) | MIC (Bacillus pumilus) | MIC (Enterococcus faecalis [3]) | MIC (Bacillus subtilis) | MIC (Escherichia coli [4]) | MIC (Enterococcus faecium [5]) | MIC (Escherichia coli [6]) | MIC (Streptococcus pyogenes [7]) | MIC (Streptococcus pyogenes [8]) | MIC (Klebsiella pneumoniae) | MIC (Enterococcus faecium [9]) | MIC (Acinetobacter baumannii) | MIC [10] | MIC (Staphylococcus aureus [11]) | MIC (Enterococcus faecalis [12]) | MIC (Staphylococcus aureus [13]) |
| --- | --- | --- | --- | --- | --- | --- | --- | --- | --- | --- | --- | --- | --- | --- | --- | --- | --- |
| COc1ccc(/C=C/c2cc(-c3ccccc3)c[n+](C)c2-c2ccccc2)cc1.[I-] | 64 µg/mL | 16 µg/mL | 32 µg/mL | 32 µg/mL | 8 µg/mL | > 64 µg/mL | 64 µg/mL | > 64 µg/mL | 8 µg/mL | 4 µg/mL | > 64 µg/mL | 64 µg/mL | 32 µg/mL | 2 µg/mL | 4 µg/mL | 64 µg/mL | 2 µg/mL |
| NC(=O)c1c(F)ccc(OCc2nc3cc(Cl)cnc3s2)c1F | 2 µg/mL (≈ 5.62 µM) | 1 µg/mL (≈ 2.81 µM) | 0.5 µg/mL (≈ 1.41 µM) | > 64 µg/mL | 0.5 µg/mL (≈ 1.41 µM) | > 64 µg/mL | > 64 µg/mL | > 64 µg/mL | > 64 µg/mL | > 64 µg/mL | > 64 µg/mL | > 64 µg/mL | > 64 µg/mL | > 64 µg/mL | 1 µg/mL (≈ 2.81 µM) | > 64 µg/mL | 1 µg/mL (≈ 2.81 µM) |
| C[n+]1cc(-c2ccccc2)c(/C=C/c2ccc(N)cc2)cc1-c1ccccc1.[I-] | 64 µg/mL | 16 µg/mL | 16 µg/mL | 64 µg/mL | 4 µg/mL | > 64 µg/mL | 64 µg/mL | > 64 µg/mL | 16 µg/mL | 4 µg/mL | > 64 µg/mL | > 64 µg/mL | 32 µg/mL | 32 µg/mL | 16 µg/mL | > 64 µg/mL | 2 µg/mL |
| CC1(C)S[C@@H]2[C@H](NC(=O)[C@H](NC(=O)N3CCN(S(C)(=O)=O)C3=O)c3ccccc3)C(=O)N2[C@H]1C(=O)O [MEZLOCILLIN] | > 64 µg/mL | 16 µg/mL (≈ 29.7 µM) | 2 µg/mL (≈ 3.71 µM) | 2 µg/mL (≈ 3.71 µM) | 4 µg/mL (≈ 7.41 µM) | 1 µg/mL (≈ 1.85 µM) | > 64 µg/mL | 1 µg/mL (≈ 1.85 µM) | < 0.062 µg/mL | < 0.062 µg/mL | > 64 µg/mL | 16 µg/mL (≈ 29.7 µM) | 64 µg/mL (≈ 119 µM) | > 64 µg/mL | 32 µg/mL (≈ 59.3 µM) | > 64 µg/mL | 1 µg/mL (≈ 1.85 µM) |
| CCCCCCOc1ccc(/C=C/c2cc(-c3ccccc3)[n+](C)cc2-c2ccccc2)cc1.[I-] | 2 µg/mL | 2 µg/mL | 0.5 µg/mL | 2 µg/mL | 0.5 µg/mL | 4 µg/mL | 1 µg/mL | 4 µg/mL | 2 µg/mL | 2 µg/mL | 8 µg/mL | 2 µg/mL | 4 µg/mL | 2 µg/mL | 0.5 µg/mL | 2 µg/mL | 0.5 µg/mL |
| C[n+]1cc(-c2ccccc2)cc(/C=C/c2ccc(Cl)c(Cl)c2)c1-c1ccccc1.[I-] | 8 µg/mL | 2 µg/mL | 4 µg/mL | 8 µg/mL | 0.5 µg/mL | 64 µg/mL | 8 µg/mL | 64 µg/mL | 2 µg/mL | 2 µg/mL | > 64 µg/mL | 8 µg/mL | 2 µg/mL | 8 µg/mL | 2 µg/mL | 8 µg/mL | 0.5 µg/mL |
| C[n+]1cc(-c2ccccc2)c(/C=C/c2ccc(N3CCCC3)cc2)cc1-c1ccc2ccccc2c1.[I-] | 1 µg/mL | 0.5 µg/mL | 1 µg/mL | 2 µg/mL | 1 µg/mL | 64 µg/mL | 2 µg/mL | 4 µg/mL | 1 µg/mL | 0.5 µg/mL | 16 µg/mL | 1 µg/mL | 1 µg/mL | 2 µg/mL | 0.5 µg/mL | 2 µg/mL | 0.5 µg/mL |
| C[n+]1cc(-c2ccccc2)c(/C=C/c2ccc(N)cc2)cc1-c1ccc(C(C)(C)C)cc1.[I-] | 2 µg/mL | 0.5 µg/mL | 2 µg/mL | 4 µg/mL | 0.5 µg/mL | 16 µg/mL | 4 µg/mL | 32 µg/mL | 2 µg/mL | 4 µg/mL | 16 µg/mL | 4 µg/mL | 4 µg/mL | 4 µg/mL | 0.25 µg/mL | 4 µg/mL | 0.125 µg/mL |
| C[n+]1cc(-c2ccccc2)c(/C=C/c2ccc(O)cc2)cc1-c1ccccc1.[I-] | 64 µg/mL | 32 µg/mL | 32 µg/mL | 64 µg/mL | 8 µg/mL | > 64 µg/mL | 64 µg/mL | > 64 µg/mL | 16 µg/mL | 4 µg/mL | 64 µg/mL | 64 µg/mL | 32 µg/mL | 16 µg/mL | 16 µg/mL | 64 µg/mL | 2 µg/mL |
| CCCCCCOc1ccc(/C=C/c2cc(-c3ccccc3)c[n+](C)c2-c2ccccc2)cc1.[I-] | 2 µg/mL | 1 µg/mL | 0.5 µg/mL | 2 µg/mL | 2 µg/mL | 8 µg/mL | 2 µg/mL | 4 µg/mL | 2 µg/mL | 2 µg/mL | > 64 µg/mL | 2 µg/mL | 2 µg/mL | 2 µg/mL | 1 µg/mL | 1 µg/mL | 0.25 µg/mL |
| CCCOc1ccc(/C=C/c2cc(-c3ccccc3)c[n+](C)c2-c2ccccc2)cc1.[I-] | 4 µg/mL | 2 µg/mL | 4 µg/mL | 8 µg/mL | 2 µg/mL | 32 µg/mL | 8 µg/mL | 64 µg/mL | 4 µg/mL | 2 µg/mL | 8 µg/mL | 8 µg/mL | 8 µg/mL | 4 µg/mL | 0.5 µg/mL | 8 µg/mL | 0.5 µg/mL |
